# Experimental data reported in US11415493B2, “Detection of cells in a liquid sample” (DELTA INSTRUMENTS B.V., priority 2016, dated 2022).
# “Also recorded” adds a separate entry of the source.
# Assays:
# E. coli [1] = assay: Staining E. coli culture with different nucleic acid dyes, flow cytometer counts (FL1FL2 region); type: cell-based, Escherichia coli
# Method: First, an experiment was performed to confirm that bacterial counts obtained on the flow cytometer using GelGreen™ did correlate with traditional plate counts. For this, the Petrifilm method was selected (Standard Methods for Examination of Dairy Products 17th Edition 2004. Edited by H. M. Wehr and J. R. Frank. American Public Health Association, 800 I Street, NW, Washington D.C. 200001. Chapter 6.040), rather than a poured agar plate method, because of ease of use. Escherichia coil (E. coli) cultures were grown at 36° C. in Trypticase Soy Broth (TSB) in a culture tube. A staining composition was prepared as follows: The nucleic acid dye GelGreen™ (from Biotium) was diluted to 1× from the 10,000× commercially available stock, into Tris-buffered saline (100 mM Trizma base, 100 mM Trizma HCl, 150 mM NaCl, pH 8.5), which was preheated to 50° C. The used dilution of 1:10,000 of the GelGreen™ is in accordance with the manufacturer's recommendation for using GelGreen™ for the purpose it was intended for, namely staining DNA in an agarose gel. This is the dilution of GelGreen™ used in all the examples herein. The E. coli culture was removed from the 36° C. incubator and a small volume was diluted 1:100 into the preheated staining composition and incubated for approximately 4.5 min at 50° C. The stained E. coli was analyzed on the flow cytometer and the FL1 (Bandpass 531 nm (519-551)) and FL2 (Long pass >550 nm) fluorescence channels were used to identify the stained bacteria (FIGS. 1A and 1C). A rectangular region was defined around the positively stained cells identified as live cells in the FL1 versus FL2 2-dimensional correlation plot (FIG. 1B). A count per mL of the E. coli was obtained from the flow cytometry analysis. The E. coli culture was then diluted in TSB to obtain 3 different concentrations (1:10, 1:100 and 1:1000, respectively). The E. coli cultures were kept at 4° C. to minimize further growth until analysis. Each dilution of E. coli was stained with the GelGreen™ reagent, analyzed on the flow cytometer and counts for each dilution were obtained. Each E. coli culture was also appropriately diluted in Butterfield's PBS and 1 mL of the appropriately diluted culture was plated on Petrifilms in duplicate. The Petrifilms were placed in a 30° C. incubator, removed after 48 hrs and the colonies on each Petrifilm were counted using an automated colony counter. An average CFU/mL for each E. coli dilution was obtained. The Log of the flow cytometer bacterial counts using GelGreen™ was plotted versus the Log CFU counts from the Petrifilm (FIG. 2).
# To show where the bacteria in the FL1 and FL2 signal plots can be expected, bacteria were first counted in the staining composition without adding any milk. A culture of E. coli were grown at 36° C. in Trypticase Soy Broth (TSB) in a culture tube. The nucleic acid dye GelGreen™ was diluted into Tris-buffered saline, at approximately pH 8.5, which was preheated to 50° C. The E. coli culture was removed from the 36° C. incubator and a small volume was diluted 1:100 into the preheated staining composition and incubated for approximately 4.5 min at 50° C. The stained E. coli was analyzed on the flow cytometer and the FL1 and FL2 fluorescence channels were used to identify the stained bacteria (FIG. 3A).
# A culture of E. coli was grown at 36° C. in Trypticase Soy Broth (TSB), stained with GelGreen™ and counted on the flow cytometer (FIG. 5) as described in example 2. The E. coli culture was then kept at 4° C. until stained with other nucleic acid dyes. The nucleic acid dyes TOTO®-1 and SYBR® Safe (both from Thermo Fisher Scientific) were selected as alternatives. […] Both dyes have similar spectral properties to GelGreen™ and were diluted in Tris-buffered saline using the same dilution factor as GelGreen™. […]
# [2] = system: Listeria monocytogenes, Staphylococcus aureus, Bacillus cereus, Pseudomonas aeruginosa, Escherichia coil; assay: Validation of flow cytometry counts versus Petrifilm CFU in raw milk spiked with gram positive and gram negative bacteria; type: cell-based; conditions: raw milk with individual bacterial cultures
# From the text: A selection of gram negative and gram positive bacteria were chosen to be placed into raw milk and processed and analyzed following the GelGreen™ raw milk treatment staining protocol as disclosed in example 2. The gram positive organisms selected were Listeria monocytogenes (Lm), Staphylococcus aureus (Sa), and Bacillus cereus (Bc). The gram negative organisms selected were Pseudomonas aeruginosa (Pa) and Escherichia coil (Ec). Different concentrations of each culture were placed into a sample of raw milk and kept at 4° C. until processed. Each sample of raw milk with an individual bacterial culture was processed and analyzed following the GelGreen™ protocol as described in example 2. Each sample of raw milk with an individual bacterial culture was appropriately diluted in Butterfield's PBS and 1 mL was plated on Petrifilms in duplicate and CFU/mL were obtained. The resulting Log FCM counts per mL were plotted against the Log Petrifilm CFU per mL.
# bacteria in raw milk = assay: IBC in raw milk samples at different pH settings, flow cytometer; type: cell-based
# E. coli [3] = assay: Validation of flow cytometer bacterial counts versus Petrifilm CFU counts, E. coli cultures; type: cell-based, Escherichia coli; conditions: Tris-buffered saline pH 8.5, 50° C.
# Method: First, an experiment was performed to confirm that bacterial counts obtained on the flow cytometer using GelGreen™ did correlate with traditional plate counts. For this, the Petrifilm method was selected (Standard Methods for Examination of Dairy Products 17th Edition 2004. Edited by H. M. Wehr and J. R. Frank. American Public Health Association, 800 I Street, NW, Washington D.C. 200001. Chapter 6.040), rather than a poured agar plate method, because of ease of use. Escherichia coil (E. coli) cultures were grown at 36° C. in Trypticase Soy Broth (TSB) in a culture tube. A staining composition was prepared as follows: The nucleic acid dye GelGreen™ (from Biotium) was diluted to 1× from the 10,000× commercially available stock, into Tris-buffered saline (100 mM Trizma base, 100 mM Trizma HCl, 150 mM NaCl, pH 8.5), which was preheated to 50° C. […] The stained E. coli was analyzed on the flow cytometer and the FL1 (Bandpass 531 nm (519-551)) and FL2 (Long pass >550 nm) fluorescence channels were used to identify the stained bacteria (FIGS. 1A and 1C). […] Each dilution of E. coli was stained with the GelGreen™ reagent, analyzed on the flow cytometer and counts for each dilution were obtained. […] The Petrifilms were placed in a 30° C. incubator, removed after 48 hrs and the colonies on each Petrifilm were counted using an automated colony counter. […]
structure (smiles),measurement,setting,value
CN(C)c1ccc2cc3ccc(N(C)C)cc3[n+](CCCCCC(=O)NCCCOCCOCCOCCCNC(=O)CCCCC[n+]3c4cc(N(C)C)ccc4cc4ccc(N(C)C)cc43)c2c1.[I-].[I-] [GelGreen™],staining of E. coli,"E. coli [1]; NaCl solution (saline), 50° C.",minimal staining
same,staining of E. coli,"E. coli [1]; NaCl solution (saline), room temperature (23° C.)",does not stain E. coli; also recorded: did not stain bacterial cells
same,staining of E. coli,"E. coli [1]; Tris-buffered saline pH 8.5, 50° C., approximately 4.5 min",stains essentially all bacterial cells
same,staining of E. coli,"E. coli [1]; Tris-buffered saline pH 8.5, room temperature (23° C.)",does not stain E. coli; also recorded: did not stain bacterial cells
same,relationship of Log FCM counts per mL versus Log Petrifilm CFU per mL,[2],overall linear relationship
same,IBC higher compared to the reference method (pH 10.6),"bacteria in raw milk; pH 7.0, fresh milk",more than 1.5 million counts per ml
same,IBC compared to the reference method (pH 10.6),bacteria in raw milk; pH 8.7,comparable with the reference method
same,relationship of Log flow cytometer bacterial counts versus Log CFU counts from Petrifilm,E. coli [3],clear linear relationship
